In ChEMBL document CHEMBL5614460, “Discovery of novel substituted pyridine carboxamide derivatives as potent allosteric SHP2 inhibitors” (Eur J Med Chem, 2024):

Biological target: T1, Tyrosine-protein phosphatase non-receptor type 11 (Homo sapiens, UniProt Q06124)
T1 sequence (Q06124 whole entry): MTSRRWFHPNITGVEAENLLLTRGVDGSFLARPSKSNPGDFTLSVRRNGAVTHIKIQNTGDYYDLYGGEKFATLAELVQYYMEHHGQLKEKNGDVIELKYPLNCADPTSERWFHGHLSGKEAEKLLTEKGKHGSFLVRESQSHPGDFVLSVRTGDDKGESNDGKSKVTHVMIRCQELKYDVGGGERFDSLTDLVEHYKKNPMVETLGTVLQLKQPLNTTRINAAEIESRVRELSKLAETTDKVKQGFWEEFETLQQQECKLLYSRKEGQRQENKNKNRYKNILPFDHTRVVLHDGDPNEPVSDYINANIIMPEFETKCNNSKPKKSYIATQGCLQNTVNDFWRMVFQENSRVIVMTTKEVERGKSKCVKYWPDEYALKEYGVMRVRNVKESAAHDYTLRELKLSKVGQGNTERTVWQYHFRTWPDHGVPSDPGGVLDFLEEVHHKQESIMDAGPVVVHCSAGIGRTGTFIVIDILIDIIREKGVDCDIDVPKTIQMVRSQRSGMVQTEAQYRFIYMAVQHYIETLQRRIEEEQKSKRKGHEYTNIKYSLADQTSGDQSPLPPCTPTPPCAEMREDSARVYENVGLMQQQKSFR
Assay: (§1) Allosteric inhibition of N-terminal His-tagged human recombinant SHP2 extracted from Escherichia coli using DiFMUP as substrate preincubated with compound for 60 mins followed by substrate addition and measured after 30 mins by fluorescence based microplate reader analysis
Conditions: not given

Going from `CC1(N)CCN(c2cnc(Sc3cccc(N)c3Cl)cn2)CC1` to `CC1(N)CCN(c2cnc(Sc3cccc(NC(=O)c4cccs4)c3Cl)cn2)CC1`, the IC50 rises from 36.2 nM to 119 nM (3.3-fold).

Going from `C[C@@H]1OCC2(CCN(c3cnc(Sc4cccc(NC(=O)c5ncccc5O)c4Cl)cn3)CC2)[C@@H]1N` to `C[C@@H]1OCC2(CCN(c3cnc(Sc4cccc(NC(=O)c5ncccc5Cl)c4Cl)cn3)CC2)[C@@H]1N`, the IC50 rises from 0.59 nM to 1.03 nM (1.7-fold).

`CC1(N)CCN(c2cnc(Sc3cccc(NC(=O)c4ccncc4Cl)c3Cl)cn2)CC1` and `CC1(N)CCN(c2cnc(Sc3cccc(NC(=O)c4cnccc4Cl)c3Cl)cn2)CC1` are within 1.5-fold of each other in IC50: 147 nM for the first, 128 nM for the second.

Going from `CC1(N)CCN(c2cnc(Sc3cccc(NC(=O)C4CCCCC4)c3Cl)cn2)CC1` to `CC1(N)CCN(c2cnc(Sc3cccc(NC(=O)c4ccco4)c3Cl)cn2)CC1`, the IC50 falls from 174 nM to 113 nM (1.5-fold). The second is the more potent here.

Compared with `CC1(N)CCN(c2cnc(Sc3cccc(NC(=O)/C=C/c4ccccc4)c3Cl)cn2)CC1`, `CC1(N)CCN(c2cnc(Sc3cccc(NC(=O)c4ccccc4)c3Cl)cn2)CC1` is 1.7-fold higher in IC50: 39.6 nM for the first, 67.8 nM for the second. The first is the more potent here.

Compared with `CC1(N)CCN(c2cnc(Sc3cccc(NC(=O)c4cnccc4O)c3Cl)cn2)CC1`, `CC1(N)CCN(c2cnc(Sc3cccc(NC(=O)c4cccnc4O)c3Cl)cn2)CC1` is 1.8-fold higher in IC50: 6.4 nM for the first, 11.3 nM for the second.

Going from `CC1(N)CCN(c2cnc(Sc3cccc(NC(=O)c4ncccc4C(F)(F)F)c3Cl)cn2)CC1` to `CC1(N)CCN(c2cnc(Sc3cccc(NC(=O)c4ncccc4F)c3Cl)cn2)CC1`, the IC50 falls from 88.6 nM to 32.3 nM (2.7-fold).

Compared with `CC1(N)CCN(c2cnc(Sc3cccc(NC(=O)c4cccc5ccccc45)c3Cl)cn2)CC1`, `CC1(N)CCN(c2cnc(Sc3cccc(NC(=O)Cc4ccccc4)c3Cl)cn2)CC1` is 6.7-fold lower in IC50: 332 nM for the first, 49.8 nM for the second. The second is the more potent here.

Going from `CC1(N)CCN(c2cnc(Sc3cccc(NC(=O)c4cnccn4)c3Cl)cn2)CC1` to `CC1(N)CCN(c2cnc(Sc3cccc(NC(=O)c4ccccn4)c3Cl)cn2)CC1`, the IC50 falls from 77 nM to 29.4 nM (2.6-fold). The second is the more potent here.

Going from `CC1(N)CCN(c2cnc(Sc3ccc(NC(=O)c4ccccc4)cc3Cl)cn2)CC1` to `CC1(N)CCN(c2cnc(Sc3cccc(NC(=O)c4ncccc4Cl)c3Cl)cn2)CC1`, the IC50 falls from 296 nM to 1.7 nM (170-fold).

Compared with `Nc1nc(N2CCN(C(=O)C3(N)CCCC3)CC2)cnc1Sc1ccnc(N)c1Cl`, `CC1(N)CCN(c2cnc(Sc3cccc(NC(=O)c4nccs4)c3Cl)cn2)CC1` is 10-fold lower in IC50: 530 nM for the first, 51.9 nM for the second. The second is the more potent here.

`C[C@@H]1OCC2(CCN(c3cnc(Sc4cccc(NC(=O)c5cccnc5O)c4Cl)cn3)CC2)[C@@H]1N` and `C[C@@H]1OCC2(CCN(c3cnc(Sc4cccc(NC(=O)c5cnccc5O)c4Cl)cn3)CC2)[C@@H]1N` are within 1.5-fold of each other in IC50: 0.13 nM for the first, 0.17 nM for the second.

First: CC1(N)CCN(c2cnc(Sc3cccc(NC(=O)c4cccnc4Cl)c3Cl)cn2)CC1
Second: Cc1cccnc1C(=O)Nc1cccc(Sc2cnc(N3CCC(C)(N)CC3)cn2)c1Cl
The IC50 of the first is 4.1-fold higher: 365 nM for the first, 89.1 nM for the second.

First: N[C@@H]1c2ccccc2CC12CCN(c1cnc(Sc3cccc(NC(=O)c4cccnc4O)c3Cl)cn1)CC2
Second: N[C@@H]1c2ccccc2CC12CCN(c1cnc(Sc3cccc(NC(=O)c4ncccc4O)c3Cl)cn1)CC2
The IC50 of the first is 3.1-fold higher: 1.87 nM for the first, 0.6 nM for the second.

Compared with `N[C@@H]1c2ccccc2CC12CCN(c1cnc(Sc3cccc(NC(=O)c4ncccc4Cl)c3Cl)cn1)CC2`, `CC1(N)CCN(c2cnc(Sc3cccc(NC(=O)c4ncccc4Br)c3Cl)cn2)CC1` is 49-fold higher in IC50: 1.08 nM for the first, 52.8 nM for the second.

First: CC1(N)CCN(c2cnc(Sc3cccc(NC(=O)c4ncccn4)c3Cl)cn2)CC1
Second: CC1(N)CCN(c2cnc(Sc3cccc(NC(=O)c4ncccc4O)c3Cl)cn2)CC1
The IC50 of the first is 4.6-fold higher: 30.1 nM for the first, 6.6 nM for the second.

`CC1(N)CCN(c2cnc(Sc3cccc(NC(=O)c4cc(Cl)ccn4)c3Cl)cn2)CC1` and `CC1(N)CCN(c2cnc(Sc3cccc(NC(=O)c4ccc(Cl)cn4)c3Cl)cn2)CC1` are within 1.5-fold of each other in IC50: 219 nM for the first, 218 nM for the second.

`CC1(N)CCN(c2cnc(Sc3cccc(NC(=O)c4cccc(Cl)n4)c3Cl)cn2)CC1` gave an IC50 of 175 nM.

Biological target: T2, Tyrosine-protein phosphatase non-receptor type 11 (Homo sapiens) (UniProt Q06124)
T2 sequence (whole entry): T1 sequence (Q06124 whole entry)
Assay: as §1, with “as substrate at 10 uM preincubated with” for “as substrate preincubated with”, “reader analysis relative to control” for “reader analysis”
Conditions: time 90.0 min

Going from `C[C@@H](N)C(=O)N1CCN(c2cnc(Sc3ccnc(N)c3Cl)c(N)n2)CC1` to `C[C@H](N)C(=O)N1CCN(c2cnc(Sc3ccnc(N)c3Cl)c(N)n2)CC1`, the inhibition falls from 43.8% to 13.2%.

First: Nc1nc(N2CCN(C(=O)C3(N)CCCC3)CC2)cnc1Sc1ccnc(N)c1Cl
Second: Nc1nc(N2CCN(C(=O)C3(N)CCCCC3)CC2)cnc1Sc1ccnc(N)c1Cl
The inhibition of the first is higher: 95.2% for the first, 14.3% for the second.

Going from `Nc1nc(N2CCN(C(=O)[C@@H]3CCCN3)CC2)cnc1Sc1ccnc(N)c1Cl` to `Nc1nc(N2CCN(C(=O)[C@H]3CCCN3)CC2)cnc1Sc1ccnc(N)c1Cl`, the inhibition rises from 48.8% to 50.2%.

First: NCC(=O)N1CCN(c2cnc(Sc3ccnc(N)c3Cl)c(N)n2)CC1
Second: Nc1nc(N2CCN(C(=O)C3(N)CCC3)CC2)cnc1Sc1ccnc(N)c1Cl
The inhibition of the first is higher: 58.8% for the first, 44.2% for the second.

Tested on: MV4-11
Assay: Antiproliferative activity against human MV4-11 cells assessed as inhibition of cell proliferation incubated for 72 hrs by CCK-8 assay
Assay type: functional, cell-based
Conditions: Homo sapiens, MV4-11, 72 h

First: C[C@@H]1OCC2(CCN(c3cnc(Sc4cccc(NC(=O)c5cccnc5O)c4Cl)cn3)CC2)[C@@H]1N
Second: C[C@@H]1OCC2(CCN(c3cnc(Sc4cccc(NC(=O)c5cnccc5O)c4Cl)cn3)CC2)[C@@H]1N
The IC50 of the first is 2.7-fold higher: 45.5 nM for the first, 16.6 nM for the second. The second is the more potent here.
